Earlier results, collected in patent US10172913B2, “Orally disintegrating solid pharmaceutical dosage unit containing a partus control substance” (Oxytone Bioscience B.V., priority 2014, dated 2019).
Bridge positions count the residues as written; N and C are the ends. Square brackets hold non-standard residues; d marks the D form. Peptide text beside a SMILES is read from it. Orn = NCCC[C@H](N)C(=O)O; Mpa = O=C(O)CCS

Legend:
[1] = lyophilized
[2] = in vivo

time stable at room temperature [1]	half-life in the blood [2]	SMILES
3 weeks	–	CCOc1ccc(C[C@H]2NC(=O)CCSSC[C@@H](C(=O)N3CCC[C@H]3C(=O)N[C@@H](CCCN)C(=O)NCC(N)=O)NC(=O)[C@H](CC(N)=O)NC(=O)[C@H]([C@@H](C)O)NC(=O)[C@H]([C@@H](C)CC)NC2=O)cc1 [atosiban] ([Mpa][dY](Et)ITNCP[Orn]G-NH2; disulfide 1-6)
–	about three	CC[C@H](C)[C@@H]1NC(=O)[C@H](Cc2ccc(O)cc2)NC(=O)[C@@H](N)CSSC[C@@H](C(=O)N2CCC[C@H]2C(=O)N[C@@H](CC(C)C)C(=O)NCC(N)=O)NC(=O)[C@H](CC(N)=O)NC(=O)[C@H](CCC(N)=O)NC1=O [Oxytocin, cysteine-tyrosine-isoleucine-glutamine-asparagine-cysteine-proline-leucine-glycine-amide]
